Reference: paper PMC7822892, “Avian antimicrobial peptides: in vitro and in ovo characterization and protection from early chick mortality caused by yolk sac infection” (Scientific Reports, 2021)
In brackets after ≈: the same amount, converted by molar mass. Where a SMILES comes first, the peptide text is derived from it. Where no end group is shown, it is not given here.

How the values were obtained:
HD11 cells = assay: HD11 cytotoxicity, WST-1 assay; conditions: 1.875 to 30 µg/ml, 24 h
[1] = tested on: Clostridium perfringens JP26; conditions: Clostridium perfringens JP26, 10^4–10^5 CFU/ml in PBS pH 7.4, 2 h at 37 °C, duplicate, plating
[2] = tested on: all tested bacteria (E. coli, S. Enteritidis, S. Typhimurium, C. jejuni, C. perfringens); conditions: 10^4–10^5 CFU/ml, 2 h
[3] = tested on: human PBMCs, monocyte chemotactic protein 1 (MCP-1); parameters: method as in PMID 19524300; conditions: in vitro stimulation of human PBMCs for 24 h; cited from earlier work
E. coli EC317 = conditions: EC317, 2 h, 240 µg/ml
[4] = tested on: human peripheral blood mononuclear cells (PBMCs) and chicken erythrocytes; conditions: cited from earlier work

CC[C@H](C)[C@H](NC(=O)[C@H](CCCNC(=N)N)NC(=O)[C@H](CCCCN)NC(=O)[C@H](CS)NC(=O)[C@H](CS)NC(=O)[C@H](CC(C)C)NC(=O)[C@H](Cc1ccc(O)cc1)NC(=O)[C@H](Cc1ccccc1)NC(=O)[C@H](CCCNC(=N)N)NC(=O)[C@H](CO)NC(=O)[C@H](CS)NC(=O)[C@H](CCCCN)NC(=O)CNC(=O)[C@H](CO)NC(=O)[C@@H](NC(=O)[C@H](CC(C)C)NC(=O)[C@@H](NC(=O)[C@H](CC(C)C)NC(=O)[C@H](CO)NC(=O)[C@@H]1CCCN1C(=O)[C@H](CS)NC(=O)[C@H](CCCCN)NC(=O)[C@H](CC(C)C)NC(=O)[C@H](Cc1ccccc1)NC(=O)[C@H](C)NC(=O)[C@H](CS)NC(=O)[C@H](Cc1ccccc1)NC(=O)CNC(=O)[C@H](CO)NC(=O)[C@H](CCCCN)NC(=O)[C@H](CCCNC(=N)N)NC(=O)[C@H](Cc1ccccc1)NC(=O)[C@H](CS)NC(=O)[C@H](CC(=O)O)NC(=O)[C@H](CO)NC(=O)[C@H](CCCCN)NC(=O)[C@H](CCCNC(=N)N)NC(=O)CN)[C@@H](C)O)[C@@H](C)CC)C(=O)N[C@@H](Cc1c[nH]c2ccccc12)C(=O)O [ABD1] (H-GRKSDCFRKSGFCAFLKCPSLTLISGKCSRFYLCCKRIW-OH)
Effect on growth and metabolic activity of HD11 cells (in words) (HD11 cells): not shown any significant effect
Minimum inhibitory concentration (MIC) that kills 100% bacteria [1]: 0.83 µM (≈ 3.74 µg/mL)
MIC over all tested bacteria ([2]; five strains): 0.83 to 1.66 µM

CC[C@H](C)[C@H](NC(=O)[C@H](CC(C)C)NC(=O)[C@H](Cc1c[nH]cn1)NC(=O)[C@H](CO)NC(=O)[C@@H]1CCCN1C(=O)[C@H](CS)NC(=O)CNC(=O)CNC(=O)[C@H](Cc1ccccc1)NC(=O)[C@H](Cc1c[nH]cn1)NC(=O)[C@H](CS)NC(=O)[C@H](CO)NC(=O)CNC(=O)CNC(=O)[C@H](CCCCN)NC(=O)[C@H](CS)NC(=O)[C@H](Cc1ccccc1)NC(=O)[C@H](CC(C)C)NC(=O)[C@H](CCSC)NC(=O)[C@H](CC(=O)O)NC(=O)[C@@H](N)CCCNC(=N)N)C(=O)N[C@@H](CCCCN)C(=O)N[C@H](C(=O)NCC(=O)N[C@@H](CO)C(=O)N[C@@H](CS)C(=O)N[C@@H](Cc1ccccc1)C(=O)NCC(=O)N[C@@H](Cc1ccccc1)C(=O)N[C@@H](CCCNC(=N)N)C(=O)N[C@@H](CO)C(=O)N[C@@H](CS)C(=O)N[C@@H](CS)C(=O)N[C@@H](CCCCN)C(=O)N[C@@H](Cc1c[nH]c2ccccc12)C(=O)N1CCC[C@H]1C(=O)N[C@@H](Cc1c[nH]c2ccccc12)C(=O)N[C@@H](CC(N)=O)C(=O)N[C@@H](C)C(=O)O)C(C)C [ABD2] (H-RDMLFCKGGSCHFGGCPSHLIKVGSCFGFRSCCKWPWNA-OH)
Effect on growth and metabolic activity of HD11 cells (in words) (HD11 cells): not shown any significant effect
Minimum inhibitory concentration (MIC) that kills 100% bacteria [1]: > 55.50 µM

CATH-2(1–21): analog of CATH-2 (literature values)
MCP-1 production (in words) [3]: significant induction

CATH-2: mature, full-length chicken cathelicidin-2 (literature values)
MCP-1 production (in words) [3]: significant induction

DTLACRQSHGSCSFVACRAPSVDIGTCRGGKLKCCKWAPSS (cysteines drawn unpaired) [ABD9]
Growth inhibition (E. coli EC317): 40–90%
Effect on growth and metabolic activity of HD11 cells (in words) (HD11 cells): not shown any significant effect
Minimum inhibitory concentration (MIC) that kills 100% bacteria [1]: > 55.97 µM

RFGRFLRKIRRFRPK [CATH-2(1–15)]
Minimum inhibitory concentration (MIC) that kills 100% bacteria [1]: > 118.05 µM
Toxicity (in words) [4]: non-toxic or very mildly toxic
MIC over tested Gram-negative bacteria ([2]; E. coli, S. Enteritidis, S. Typhimurium, C. jejuni): 0.92 to 7.38 µM

SPIHACRYQRGVCIPGPCRWPYYRVGSCGSGLKSCCVRNRWA (cysteines drawn unpaired) [ABD6]
Effect on growth and metabolic activity of HD11 cells (in words) (HD11 cells): not shown any significant effect
Minimum inhibitory concentration (MIC) that kills 100% bacteria [1]: 50.59 µM
